The source of these data is patent US20240158740A1, “CELL CLUSTER PRODUCTION METHOD” (National University Corporation Tokyo Medical and Dental …, priority 2021, published 2024).

What all share (format): cell-based
Experiment [1] has as its system Human iPS cells (625A4) colonies. Briefly: Differentiation marker analysis of cell cluster by immunocytostaining after Wnt signal-inhibiting culture step (Day 2). The settings on record: cell cluster of Day 2. Here is the method:
Human iPS cells (625A4; Center for iPS Cell Research and Application (CiRA), Kyoto University) were cultured at 37° C. for 6 to 7 days under 5% CO2 in AK02N (Ajinomoto Co., Inc.) (10 cm dish; 8 ml, 24-well plate; 0.5 ml) to form iPS cell colonies of 500 to 700 μm in diameter. The obtained colonies were cultured at 37° C. for 2 days under 5% CO2 in Essential 8 medium (Gibco) (10 cm dish; 8 ml, 24-well plate; 0.5 ml) supplemented with BMP4 (80 ng/ml), VEGF (80 ng/ml), and IWP-2 (2 μM) (Days 0 to 2).
iPS cell colonies were formed as a control in the same manner as in [1] and [2]. Then, the obtained colonies were cultured at 37° C. for 2 days under 5% CO2 in Essential 8 medium (Gibco) (10 cm dish; 8 ml, 24-well plate; 0.5 ml) supplemented with BMP4 (80 ng/ml) and VEGF (80 ng/ml) (Days 0 to 2).
After induction of differentiation in the step of Days 0 to 2 in [1] or [2], the medium was removed, and the cells were washed once with PBS(−) (Gibco). Then, 4% paraformaldehyde was added at a volume of 500 μl/24 wells to the cells and left at room temperature for 15 minutes. Then, the cells were washed three times with PBS(−) and preserved overnight at 4° C. Then, PROTEIN BLOCK SERUM-FREE blocking solution [DAKO, X909] was added at a volume of 500 μl/24 wells to the cells and left at room temperature for 60 minutes for blocking. Then, a primary antibody ( 1/100 Anti-GATA6 (Abcam plc, ab22600), 1/50 Anti-Brachyury T (R&D Systems, Inc., AF2085), 1/400 Anti-Sox2 (CST, 3579P2), 1/100 Anti-CDX2 (R&D Systems, Inc., MAB3665), and 1/50 Anti-AP-2a (Santa Cruz Biotechnology Inc., sc-12726)) against the target antigen was added to a 1% blocking solution in PBS(−). The primary antibody solution was added at a volume of 500 μl/24 wells and left standing at room temperature for 60 minutes or overnight at 4° C. Subsequently, the cells were washed three times with PBS(−). […] The processing of the obtained images and quantitative analysis were carried out using image analysis software “Fiji”.

Experiment [2] concerns Human iPS cells (625A4) derived cell population. Put plainly: Differentiation marker analysis of cell population by immunocytostaining (Brachyury, CD34; Day 6). The settings on record: cell cluster obtained with CHIR99021 2 μM (Days 0 to 2), further differentiated; cell population of Day 6. How it is done: Following the preparation of human yolk sac mesoderm cells in [1], the medium was replaced with Essential 6 medium (Gibco) (10 cm dish; 8 ml) supplemented with VEGF (80 ng/ml), FGF2 (25 ng/ml), SCF (50 ng/ml), and SB431542 (2 μM), and hemangioblasts were induced by further culture at 37° C. for 2 days under 5% CO2. Then, the medium was replaced with Stempro-34 SFM (Gibco) (10 cm dish; 8 ml) supplemented with VEGF (80 ng/ml), SCF (50 ng/ml), Flt-3L (50 ng/ml), IL-3 (50 ng/ml), IL-6 (50 ng/ml), and TPO (5 ng/ml), and the cells were cultured at 37° C. for 2 days under 5% CO2. Then, the medium was replaced with a medium of the composition described above except for VEGF, and CD34-positive and CD32-positive vitelline venous hemogenic endothelial cells were induced by culture at 37° C. for 2 days under 5% CO2. After induction of differentiation of the step of Days 4 to 6 in [4], immunocytostaining was performed by the same procedures as in [3] except that the primary antibody used was changed to 1/50 Anti-CD34 (Abcam plc, ab81289).

Experiment [3] shares this test system. Briefly: Differentiation marker analysis using flow cytometry (CD34, CD32; Day 8). The settings on record: cell cluster obtained with CHIR99021 2 μM (Days 0 to 2), further differentiated; cell population of Day 8; compared with control (−). How it is done:
Following the preparation of human yolk sac mesoderm cells in [1], the medium was replaced with Essential 6 medium (Gibco) (10 cm dish; 8 ml) supplemented with VEGF (80 ng/ml), FGF2 (25 ng/ml), SCF (50 ng/ml), and SB431542 (2 μM), and hemangioblasts were induced by further culture at 37° C. for 2 days under 5% CO2. Then, the medium was replaced with Stempro-34 SFM (Gibco) (10 cm dish; 8 ml) supplemented with VEGF (80 ng/ml), SCF (50 ng/ml), Flt-3L (50 ng/ml), IL-3 (50 ng/ml), IL-6 (50 ng/ml), and TPO (5 ng/ml), and the cells were cultured at 37° C. for 2 days under 5% CO2. Then, the medium was replaced with a medium of the composition described above except for VEGF, and CD34-positive and CD32-positive vitelline venous hemogenic endothelial cells were induced by culture at 37° C. for 2 days under 5% CO2. After induction of differentiation of vitelline venous hemogenic endothelial cells by the step of Days 6 to 8 in [4], the medium was removed, and the cells were washed twice with PBS(−) (Gibco). Then, TrypLE Express (Gibco) was added at a volume of 3 mL/dish and left at 37° C. for 15 minutes. Then, the cells were recovered into a 15 mL tube while dissociated by pipetting with P1000 micropipette. […] The differentiation markers were analyzed by BD LSRFortessa flow cytometry using the obtained antibody-stained cell suspension. Data obtained from flow cytometry was analyzed using FlowJo.
In general terms: Flow cytometry measures light scatter and fluorescence of single cells or particles in a stream.

For experiment [4], the system named is Human iPS cells (625A4) colonies. Put plainly: Differentiation marker analysis of cell cluster by immunocytostaining after Wnt signal-activating culture step (Day 2). How it is done: Human iPS cells (625A4; Center for iPS Cell Research and Application (CiRA), Kyoto University) were cultured at 37° C. for 6 to 7 days under 5% CO2 in AK02N (Ajinomoto Co., Inc.) (10 cm dish; 8 ml, 24-well plate; 0.5 ml) to form iPS cell colonies of 500 to 700 μm in diameter. The obtained colonies were cultured at 37° C. for 2 days under 5% CO2 in Essential 8 medium (Gibco) (10 cm dish; 8 ml, 24-well plate; 0.5 ml) supplemented with BMP4 (80 ng/ml), VEGF (80 ng/ml), and CHIR99021 (2 μM) (Days 0 to 2). iPS cell colonies were formed as a control in the same manner as in [1] and [2]. Then, the obtained colonies were cultured at 37° C. for 2 days under 5% CO2 in Essential 8 medium (Gibco) (10 cm dish; 8 ml, 24-well plate; 0.5 ml) supplemented with BMP4 (80 ng/ml) and VEGF (80 ng/ml) (Days 0 to 2). After induction of differentiation in the step of Days 0 to 2 in [1] or [2], the medium was removed, and the cells were washed once with PBS(−) (Gibco). Then, 4% paraformaldehyde was added at a volume of 500 μl/24 wells to the cells and left at room temperature for 15 minutes. Then, the cells were washed three times with PBS(−) and preserved overnight at 4° C. Then, PROTEIN BLOCK SERUM-FREE blocking solution [DAKO, X909] was added at a volume of 500 μl/24 wells to the cells and left at room temperature for 60 minutes for blocking. Then, a primary antibody ( 1/100 Anti-GATA6 (Abcam plc, ab22600), 1/50 Anti-Brachyury T (R&D Systems, Inc., AF2085), 1/400 Anti-Sox2 (CST, 3579P2), 1/100 Anti-CDX2 (R&D Systems, Inc., MAB3665), and 1/50 Anti-AP-2a (Santa Cruz Biotechnology Inc., sc-12726)) against the target antigen was added to a 1% blocking solution in PBS(−). The primary antibody solution was added at a volume of 500 μl/24 wells and left standing at room temperature for 60 minutes or overnight at 4° C. Subsequently, the cells were washed three times with PBS(−). […] The processing of the obtained images and quantitative analysis were carried out using image analysis software “Fiji”.

With `Cc1ccc2nc(NC(=O)CSc3nc4c(c(=O)n3-c3ccccc3)SCC4)sc2c1` [IWP-2], the “GATA6-positive cells in an outer edge part of the cell cluster” value in experiment [1] (2 μM, Days 0 to 2, compared with +CHIR) is recorded as “small number of GATA6-positive cells”. Further, in experiment [1] (IWP-2 2 μM with BMP4 and VEGF in Essential 8, Days 0 to 2, compared with no addition (−)), the “Enrichment of CDX2-positive and TFAP2A-positive AECs in the cell cluster” value was “enriched”. Also, the “GATA6 status of the CDX2-positive region (+IWP-2)” value in experiment [1] (IWP-2 2 μM, Days 0 to 2) is recorded as “GATA6-negative”.
On to `Cc1c[nH]c(-c2cnc(NCCNc3ccc(C#N)cn3)nc2-c2ccc(Cl)cc2Cl)n1` [CHIR99021], for which the “Appearance of CD34-positive vascular endothelial progenitor cells from YSM region in the outer edge part” value in experiment [2] was “Rich CD34-positive vascular endothelial progenitor cells were confirmed to appear”. In addition, the “CD34-positive and CD32-positive vitelline venous hemogenic endothelial cells produced” value in experiment [3] is “more”. In addition, the “Enrichment of Brachyury-negative, GATA6-positive, and FOXF1-positive YSMCs in the cell cluster” value in experiment [4] (CHIR99021 2 μM with BMP4 and VEGF in Essential 8, Days 0 to 2, cell cluster of Day 2, compared with no addition (−)) is “enriched”. Also, the “Morphology of the cell cluster under an optical microscope versus cell cluster obtained by a conventional method” value in experiment [4] (CHIR99021 2 μM, 2 days after the start of culture) is “differ morphologically”. For the same compound, the “GATA6 status of the CDX2-negative region (+CHIR)” value in experiment [4] (CHIR99021 2 μM, Days 0 to 2, cell cluster of Day 2) is “GATA6-positive”.
